The values below come from the NIST ThermoML archive (doi:10.1016/j.fluid.2018.07.018).

The conditions of the series: Crystal; DTA.

Each structure is given as a SMILES string. ± gives the expanded uncertainty stated by the source.

As for `CC(C)OC(=O)C(C)(C)Oc1ccc(C(=O)c2ccc(Cl)cc2)cc1` [fenofibrate], the Normal melting temperature was 82.00 ± 1.1 °C.
